Values of other authors as cited in patent US20110039841A1, “Novel compounds, their preparation and use” (Novo Nordisk A/S, priority 2004, published 2011).

Columns and labels:
PPARδ = molecular target: T1, PPARδ (Mus musculus, UniProt P35396); conditions: high fat diet induced insulin resistant mice and diabetic ob/ob; PNAS 2003, 100, 15924-15929
T1 construct: pharmacological treatment of both high fat diet induced insulin resistant mice and diabetic ob/ob with the potent PPARδ agonist GW501516; host or cells: mice (high fat diet induced insulin resistant; ob/ob), in vivo
T1 sequence (P35396 1-440): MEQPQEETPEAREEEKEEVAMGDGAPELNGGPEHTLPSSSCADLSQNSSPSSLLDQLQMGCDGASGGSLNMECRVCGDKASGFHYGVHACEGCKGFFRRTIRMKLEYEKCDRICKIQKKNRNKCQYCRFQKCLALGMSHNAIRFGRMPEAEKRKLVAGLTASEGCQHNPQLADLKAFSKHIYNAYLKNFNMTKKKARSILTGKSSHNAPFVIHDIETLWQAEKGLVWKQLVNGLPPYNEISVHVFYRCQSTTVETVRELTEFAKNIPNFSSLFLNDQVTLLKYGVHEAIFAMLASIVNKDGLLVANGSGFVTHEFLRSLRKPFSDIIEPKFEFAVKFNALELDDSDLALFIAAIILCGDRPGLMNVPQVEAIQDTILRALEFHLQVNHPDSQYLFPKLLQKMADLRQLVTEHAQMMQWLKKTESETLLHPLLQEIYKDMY

C2C12 muscle cells = conditions: in vitro, BioChem. Biophys. Acta 2003, 1633, 43-50, Mol. Endocrin. 2003, 17, 2477-2493

## Cc1cc(SCc2sc(-c3ccc(C(F)(F)F)cc3)nc2C)ccc1OCC(=O)O [GW501516]
PPARδ
  plasma glucose, insulin and insulin sensitivity: lowering of plasma glucose and insulin and improved insulin sensitivity
C2C12 muscle cells
  regulation of genes of lipid metabolism and energy expenditure: regulation of genes involved with TG hydrolysis and FFA oxidation
